From publication PMC10976043, “Function and Mechanism of Antiviral Wasp Venom Peptide Protopolybia-MP III and Its Derivatives against HSV-1” (Toxins, 2024)
Where two headings read alike, the source gives them in different places. Ends that are not written are not given here.

Experiments:
HSV-1 virion = assay: HSV-1 free virion infectivity assay, qPCR; format: cell-based, herpes simplex virus type 1; conditions: mutant comparison (Figure 7C): 5 μg/mL coincubated with HSV-1 (MOI 1) at 37 °C for 1 h, then Vero cells infected, 24 h
Method: Figure 5 Protopolybia-MP III destroys the integrity of HSV-1 free virions. (A) Schematic diagram for studying the effect of Protopolybia-MP III on HSV-1 free virion infectivity. (B) Effects of Protopolybia-MP III on HSV-1 free virion infectivity at different temperatures. HSV-1 (MOI = 1) and 20 μg/mL Protopolybia-MP III or PBS were coincubated at 4 °C, 22 °C, and 37 °C for 1 h, and then Vero cells were infected as described in (A). After 24 h, cells were collected, and intracellular HSV-1 RNA was analyzed by qPCR. (C) Effects of different concentrations of Protopolybia-MP III on HSV-1 free virion infectivity. HSV-1 (MOI = 1) and 1 or 10 μg/mL Protopolybia-MP III or PBS were coincubated at 37 °C for 1 h, and then Vero cells were infected as described in (A). After 24 h, cells were collected, and intracellular HSV-1 RNA was analyzed by qPCR. (D,E) The effect of Protopolybia-MP III on HSV-1 free virion integrity. HSV-1 and 20 μg/mL Protopolybia-MP III or PBS were coincubated at 37 °C for 1 h. Then, after centrifuging for 2 h at 40,000 rpm at 4 °C, the contents of HSV-1 gB in the supernatant and precipitate were detected by Western blotting (D). In addition, the structure of HSV-1 virions after incubation with Protopolybia-MP III was observed by electron microscopy. The red arrow points to a destroyed HSV-1 virion. *** p < 0.001.
(§1) Figure 7 Antiviral activity analysis of Protopolybia-MP III mutants. (A) Amino acid sequences of Protopolybia-MP III mutants. Identical amino acids among Protopolybia-MP I, Protopolybia-MP III, and its mutants are marked in blue, and different amino acids are marked in red. (B) Suppression of Protopolybia-MP I, Protopolybia-MP III, and its mutants on intracellular HSV-1 content. Cells were preincubated with 20 μg/mL peptides or PBS for 1 h and then infected with HSV-1 at an MOI of 1. After 24 h, the cells were collected. Intracellular HSV-1 ICP0 protein levels were analyzed by Western blotting. The ratios of HSV-1 ICP0 to GAPDH were calculated by ImageJ software. (C) Inhibition of HSV-1 free virion infectivity by Protopolybia-MP I, Protopolybia-MP III, and its mutants. HSV-1 (MOI = 1) and 5 μg/mL peptides or PBS were coincubated at 37 °C for 1 h, and the mixtures were then used to infect Vero cells. After 24 h, cells were collected, and intracellular HSV-1 RNA was analyzed by qPCR. ns, no significance. * p < 0.05. ** p < 0.01. *** p < 0.001.
(§2) Cells were collected and lysed using TRIzol reagent (Beyotime Biotechnology, Shanghai, China) to release the intracellular total RNA, followed by precipitation with isopropanol. The first-strand cDNA was reverse-transcribed by the HiScript III 1st Strand cDNA Synthesis Kit (+gDNA wiper) (Vazyme, Nanjing, China). The cDNA was quantitated by qPCR with primers using Taq Pro Universal SYBR qPCR Master Mix (Vazyme). The HSV-1 primers were 5′-[…]-3′ (sense) and 5′-[…]-3′ (antisense). The monkey GAPDH primers were 5′-[…]-3′ (sense) and 5′-[…]-3′ (antisense). The human GAPDH primers were 5′-[…]-3′ (sense) and 5′-[…]-3′ (antisense). qPCR experiments were performed on a Bio-Rad CFX96 Touch (Pleasanton, CA, USA) according to the manufacturer’s instructions.

HSV-1 ICP0 = format: cell-based, herpes simplex virus type 1; conditions: for inhibition rate on intracellular HSV-1 ICP0 protein expression: ICP0, 1 h; for inhibition rate on intracellular HSV-1 ICP0 expression level: ICP0, 24 h
Method: (§3) (A) Amino acid sequence of Protopolybia-MP III. Basic residues are labeled blue, and acidic residues are labeled red. (B,C) Suppression of intracellular HSV-1 infection by Protopolybia-MP III. Cells were preincubated with Protopolybia-MP III at different concentrations or PBS for 1 h and then infected with HSV-1 at a multiplicity of infection (MOI) of 1. After 24 h, the cells were collected. Intracellular HSV-1 RNA was analyzed by qPCR (B), and intracellular HSV-1 ICP0 protein levels were analyzed by Western blotting (C). (D) Suppression of Protopolybia-MP III on extracellular HSV-1 particles. Cells were treated with Protopolybia-MP III at different concentrations or PBS for 24 h, and then the supernatant was collected and evaluated in a plaque formation assay. (E) Cytotoxicity of Protopolybia-MP III to Vero cells. Cells were treated with Protopolybia-MP III or PBS at different concentrations for 24 h, and then the cytotoxicity was determined by CCK8 assay. * p < 0.05. ** p < 0.01. *** p < 0.001.
(§4) Figure 2 Protopolybia-MP III inhibits HSV-1 replication in human cell lines. (A) Cytotoxicities of Protopolybia-MP III to A549 cells, HCEC, and SK-N-MC. Cells were treated with Protopolybia-MP III at different concentrations or PBS for 24 h, and then cytotoxicities were determined by the CCK8 assay. (B,C) Suppression of intracellular HSV-1 infection by Protopolybia-MP III in A549 cells, HCEC, and SK-N-MC. Cells were preincubated with Protopolybia-MP III at different concentrations or PBS for 1 h and then infected with HSV-1 at an MOI of 1. After 24 h, the cells were collected. Intracellular HSV-1 RNA was analyzed by qPCR (B), and intracellular HSV-1 ICP0 protein expression levels were analyzed by Western blotting (C). (D) Inhibition of Protopolybia-MP III on extracellular HSV-1 particles in A549 cells, HCEC, and SK-N-MC. Cells were treated with Protopolybia-MP III at different concentrations or PBS for 24 h, and then the supernatant was collected and evaluated in a plaque formation assay. * p < 0.05. ** p < 0.01. *** p < 0.001.
as §1
(§5) HSV-1 was kindly provided by Professor Zhijian Cao of Wuhan University. Cells were infected with HSV-1 at an MOI of 1 for 24 h. Then, cells were collected for qPCR, Western blotting, and immunofluorescence assays, and the extracellular supernatant was used for plaque formation assays.
Cells were collected and lysed in 1% SDS. The cell lysate was heated at 100 °C for 20 min and centrifuged at 12,000 rpm at 4 °C for 15 min, and then the supernatant was collected and assayed with a BCA Protein Quantification Kit (Vazyme). Equal amounts of protein were separated using a PAGE Gel Fast Preparation Kit (10%) (Epizyme Biotech, Wuhan, China) and transferred to nitrocellulose (NC) membranes (Millipore, Wuhan, China). […]

Vero cells = assay: CCK8 cytotoxicity assay, Vero cells; format: cell-based, monkey; conditions: 40 μg/mL, 24 h
Method: as §3
Cells were seeded in a 96-well plate (7000–10,000 cells per well) and cultured at 37 °C overnight. Peptides in a series of concentrations were added to the medium, and cells were then incubated at 37 °C for 24 h. […] Finally, the absorbance was measured at 450 nm using a microplate reader (BioTek, Winooski, VT, USA).

HSV-1 [1] = assay: Plaque formation assay of extracellular HSV-1 particles; format: cell-based, herpes simplex virus type 1; conditions: Vero cells treated 24 h, supernatant in plaque formation assay
Method: as §3, §4
Vero cells seeded in a 24-well plate at 100% confluence were infected with virus diluent or supernatant. After 1 h of absorption at 37 °C, the supernatant was removed. Cells were washed three times with PBS and replenished with a plaque-covering layer (MEM with 2% FBS and 1.5% carboxymethylcellulose). After an incubation period of approximately 3 days, the cells were stained with 1% crystal violet containing 10% methanol for 0.5 h. Then, the plaques were counted, and the viral titer was calculated according to the plaque number and dilution.

HSV-1 [2] = format: cell-based, herpes simplex virus type 1; conditions: Vero cells, preincubated 1 h, HSV-1 MOI 1, 24 h, qPCR
Method: as §3, §4, §5, §2

Substance	inhibition rate of HSV-1 free virion infectivity (HSV-1 virion) [%]	inhibition rate on intracellular HSV-1 ICP0 protein expression (HSV-1 ICP0; 20 μg/mL) [%]	further results
INWLKLGKAVIAAL-NH2 [MP III-3]	58.3	94	
INWLKLGKAVIAIL-NH2 [MP III-10]	100	100	
INWLKLGKAVIDIL-NH2 [MP III-4]		99.4	
INWLKLGKAVSAAL-NH2 [MP III-8]		66	
INWLKLGKAVSAIL-NH2 [MP III-11]	64.7	73.4	
INWLKLGKAVSDAL-NH2 [MP III-2]	27.4	20.6	
INWLKLGKAVSDIL-NH2 [MP III-9]	63.6	63.8	
INWLKLGKKVIAAL-NH2 [MP III-6]	95.5	63.2	
INWLKLGKKVIAIL-NH2 [MP III-12]	92.4	76.8	
INWLKLGKKVIDAL-NH2 [MP III-1]	59.7	53.7	
INWLKLGKKVIDIL-NH2 [MP III-7]	100	100	
INWLKLGKKVSAAL-NH2 [MP III-14]	25.3	90.8	
INWLKLGKKVSAIL-NH2 [Protopolybia-MP I]			cytotoxicity to Vero cells (Vero cells): almost nontoxic; inhibition rate on intracellular HSV-1 ICP0 expression level (HSV-1 ICP0; 5 μg/mL): 17%; inhibition rate on intracellular HSV-1 ICP0 expression level (HSV-1 ICP0; 10 μg/mL): 17%; inhibition rate on intracellular HSV-1 ICP0 expression level (HSV-1 ICP0; 20 μg/mL): 25%; extracellular HSV-1 particles (plaques) (HSV-1 [1]): almost no inhibitory effect; inhibition rate on intracellular HSV-1 RNA (HSV-1 [2]; 5 μg/mL peptide): no effect; inhibition rate on intracellular HSV-1 RNA (HSV-1 [2]; 10 μg/mL peptide): no effect; inhibition rate on intracellular HSV-1 RNA (HSV-1 [2]; 20 μg/mL peptide): no effect
INWLKLGKKVSDAL-NH2 [MP III-5]		74.8	
INWLKLGKKVSDIL-NH2 [MP III-13]		60.2	
